Like-named read-outs stand apart in the source and are kept apart here.
Key:
alopecia [1] = assay: composition directly applied to the scalp on one side of the head, other side left untreated; format: in vivo, human
Source text: (§1) patient one is diagnosed with alopecia. A composition comprising the calcium channel blocker nifedipine is directly applied to the scalp on one side of the head while the other side is left untreated. […] patient one is diagnosed with alopecia. A composition comprising the ACE inhibitor enalapril is directly applied to the scalp on one side of the head while the other side is left untreated. […] patient one is diagnosed with alopecia. A composition comprising the angiotensin receptor blocker losartan is directly applied to the scalp on one side of the head while the other side is left untreated. […] patient two is diagnosed with alopecia. A composition comprising the calcium channel blocker nifedipine is directly applied to the scalp on one side of the head while the other side is left untreated. […] patient two is diagnosed with alopecia. A composition comprising the ACE inhibitor enalapril is directly applied to the scalp on one side of the head while the other side is left untreated. […] patient two is diagnosed with alopecia. A composition comprising the angiotensin receptor blocker losartan is directly applied to the scalp on one side of the head while the other side is left untreated.

alopecia [2] = assay: composition directly injected into the scalp on one side of the head, other side left untreated; format: in vivo, human
Source text: as §1, with “injected into” for “applied to”, “the” for “the other”

female pattern hair loss = details: women, facial hair growth during treatment; cited from earlier work
androgenic alopecia = details: cited from earlier work

| Compound | symptoms of alopecia, treated side versus untreated side (alopecia [1]; patient one) | symptoms of alopecia, treated side versus untreated side (alopecia [1]; patient two) | symptoms of alopecia, treated side versus untreated side (alopecia [2]; patient one) | symptoms of alopecia, treated side versus untreated side (alopecia [2]; patient two) | time for facial hair growth side effect to resolve (female pattern hair loss) | hair count higher than baseline as compared to placebo (androgenic alopecia; after 4 years) | hair count higher than baseline as compared to placebo (androgenic alopecia; after one year of treatment) |
| --- | --- | --- | --- | --- | --- | --- | --- |
| CCCCc1nc(Cl)c(CO)n1Cc1ccc(-c2ccccc2-c2nn[nH]n2)cc1 [losartan] | reduced symptoms of alopecia | reduced symptoms of alopecia | reduced symptoms of alopecia | reduced symptoms of alopecia |  |  |  |
| Nc1cc(N2CCCCC2)nc(N)[n+]1[O-] [Minoxidil] |  |  |  |  | at least 4 months |  |  |
| CC(C)(C)NC(=O)[C@H]1CC[C@H]2[C@@H]3CC[C@H]4NC(=O)C=C[C@]4(C)[C@H]3CC[C@]12C [Finasteride] |  |  |  |  |  | 24.3% | 9.42% |
| CCOC(=O)[C@H](CCc1ccccc1)N[C@@H](C)C(=O)N1CCC[C@H]1C(=O)O [enalapril] | reduced symptoms of alopecia | reduced symptoms of alopecia | reduced symptoms of alopecia | reduced symptoms of alopecia |  |  |  |

Reference: patent US20210346378A1, “METHOD TO PREVENT AND TREAT ALOPECIA BY CALCIUM CHANNEL BLOCKERS, ANGIOTENSIN CONVERTING ENZYME INHIBITORS, AND ANGIOTENSIN RECEPTOR BLOCKERS” (priority 2019, published 2021)
